One test has as its target T1, Deoxynucleoside kinase (Drosophila melanogaster) (UniProt Q9XZT6).
T1 sequence (whole entry): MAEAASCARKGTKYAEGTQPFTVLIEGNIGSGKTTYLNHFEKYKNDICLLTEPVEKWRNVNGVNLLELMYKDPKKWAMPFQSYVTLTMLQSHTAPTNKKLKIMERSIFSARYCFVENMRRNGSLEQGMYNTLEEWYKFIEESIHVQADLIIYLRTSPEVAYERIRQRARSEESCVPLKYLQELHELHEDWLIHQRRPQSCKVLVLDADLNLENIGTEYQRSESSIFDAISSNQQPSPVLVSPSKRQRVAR
Briefly: Activity at Drosophila melanogaster dNK at 100 uM by spectrophotometry.
With `Cc1cc2cn([C@H]3CC[C@@H](CO)O3)c(=O)nc2[nH]1`, the Activity was determined as 2.6%.

In turn, `Cc1cc2cn([C@H]3C[C@H](N=[N+]=[N-])[C@@H](CO)O3)c(=O)nc2o1` came in with an Activity of 12%. Still for that read-out and setting: then `Cc1cc2cn([C@H]3C[C@H](F)[C@@H](CO)O3)c(=O)nc2o1`, with 12%; and `Cc1cc2cn([C@H]3CC[C@@H](CO)O3)c(=O)nc2o1`, with 30%; and `Cc1cc2cn([C@H]3C[C@H](O)[C@@H](CO)O3)c(=O)nc2[nH]1`, with 128%. Same read-out and setting: then `Cc1cc2cn([C@H]3C=C[C@@H](CO)O3)c(=O)nc2o1`, with 330%.

A further test deals with T1, Deoxynucleoside kinase (Drosophila melanogaster). As to the kind of experiment: Activity at Drosophila melanogaster dNK at 10 uM by spectrophotometry.
`Cc1cc2cn([C@H]3C[C@H](O)[C@@H](CO)O3)c(=O)nc2o1` gave an Activity of 43%.
